For the test, the target named is Acetylcholinesterase (Electrophorus electricus, UniProt O42275). Description: AChE Inhibitory Assay. The note with it: pH 7.7. The method, then: The mixture was incubated at 25 °C for 5 min. Subsequently, the enzymatic reaction was initiated by addition of 15 µL of 1 mM of acetylthiocholine iodide or butyrylthiocholine iodide (according to the respective enzyme), and the mixture was again incubated for 5 min at 25 °C. The rate of absorbance change was measured at 412 nm for 6 min using a microplate reader (Bio-Rad 680, Germany). Galantamine was applied as positive drug.
Acetylcholinesterase, sequence (O42275 whole entry): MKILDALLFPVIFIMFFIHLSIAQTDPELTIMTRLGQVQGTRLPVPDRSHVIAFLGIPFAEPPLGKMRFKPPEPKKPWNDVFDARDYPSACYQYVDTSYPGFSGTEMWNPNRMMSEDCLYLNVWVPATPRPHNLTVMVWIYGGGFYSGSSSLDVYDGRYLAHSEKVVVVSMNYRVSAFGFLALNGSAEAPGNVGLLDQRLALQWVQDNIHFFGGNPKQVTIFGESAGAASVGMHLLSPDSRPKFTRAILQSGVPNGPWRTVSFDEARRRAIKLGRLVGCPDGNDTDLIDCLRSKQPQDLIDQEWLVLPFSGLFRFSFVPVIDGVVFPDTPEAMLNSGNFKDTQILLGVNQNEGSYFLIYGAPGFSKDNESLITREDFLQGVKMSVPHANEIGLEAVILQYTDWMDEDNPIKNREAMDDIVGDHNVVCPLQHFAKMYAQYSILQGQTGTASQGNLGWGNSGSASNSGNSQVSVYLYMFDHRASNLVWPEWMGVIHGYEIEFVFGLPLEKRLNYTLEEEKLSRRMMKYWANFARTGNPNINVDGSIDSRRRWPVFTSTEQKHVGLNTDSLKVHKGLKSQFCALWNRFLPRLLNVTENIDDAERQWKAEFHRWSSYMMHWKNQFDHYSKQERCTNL
By IC50 is commonly meant the concentration needed to halve the response being measured. Consider `N=c1oc2ccc3ccc(=O)oc3c2cc1C(=O)NCc1ccccc1Br` [N-(2-bromobenzyl)-8-imino-2-oxo-2H,8H-pyrano[2,3-f]chromene-9-carboxamide (4l)], for which the IC50 is 27 nM. In other words, the double-digit nanomolar range.
With `CC(NC(=O)c1cc2c(ccc3ccc(=O)oc32)oc1=N)c1ccccc1` (configuration not stated) [8-imino-2-oxo-N-(1-phenylethyl)-2H,8H-pyrano[2,3-f]chromene-9-carboxamide (4h)], the IC50 came out at 462 nM.
Turning to `N=c1oc2ccc3ccc(=O)oc3c2cc1C(=O)NC(c1ccccc1)c1ccccc1` [N-benzhydryl-8-imino-2-oxo-2H,8H-pyrano[2,3-f]chromene-9-carboxamide (4i)], it took 669 nM to reach half-maximal inhibition (IC50). This IC50 and that of the compound before are within 1.5-fold of each other.
In turn, `CCNC(=O)c1cc2c(ccc3ccc(=O)oc32)oc1=N` [N-ethyl-8-imino-2-oxo-2H,8H-pyrano[2,3-f]chromene-9-carboxamide (4b)] came in with an IC50 of 259 nM.
`CNC(=O)c1cc2c(ccc3ccc(=O)oc32)oc1=N` [8-imino-N-methyl-2-oxo-2H,8H-pyrano[2,3-f]chromene-9-carboxamide (4a)] returned an IC50 of 415 nM. This IC50 lies about 1.6-fold higher than the previous one.
Compound `N=c1oc2ccc3ccc(=O)oc3c2cc1C(=O)NC1CCCCC1` [N-cyclohexyl-8-imino-2-oxo-2H,8H-pyrano[2,3-f]chromene-9-carboxamide (4e)] yielded a concentration for half-maximal inhibition (IC50) of 169 nM.
The value for `N=c1oc2ccc3ccc(=O)oc3c2cc1C(=O)NCc1cccc(Br)c1` [N-(3-bromobenzyl)-8-imino-2-oxo-2H,8H-pyrano[2,3-f]chromene-9-carboxamide (4m)] was 13 nM; that for `N=c1oc2ccc3ccc(=O)oc3c2cc1C(=O)NC1CC1` [N-cyclopropyl-8-imino-2-oxo-2H,8H-pyrano[2,3-f]chromene-9-carboxamide (4d)] was 799 nM; that for `COc1ccccc1OCCNC(=O)c1cc2c(ccc3ccc(=O)oc32)oc1=N` [8-imino-N-(2-(2-methoxyphenoxy)ethyl)-2-oxo-2H,8H-pyrano[2,3-f]chromene-9-carboxamide (4q)] was 440 nM.
On to `N=c1oc2ccc3ccc(=O)oc3c2cc1C(=O)NCc1ccccc1` [N-benzyl-8-imino-2-oxo-2H,8H-pyrano[2,3-f]chromene-9-carboxamide (4g)], for which the IC50 was 497 nM.
Under `N=c1oc2ccc3ccc(=O)oc3c2cc1C(=O)NCc1cccc(Cl)c1` [N-(3-chlorobenzyl)-8-imino-2-oxo-2H,8H-pyrano[2,3-f]chromene-9-carboxamide (4o)] stands 88 nM; under `COc1ccc(C(C)NC(=O)c2cc3c(ccc4ccc(=O)oc43)oc2=N)cc1` (configuration not stated) [8-imino-N-(1-(4-methoxyphenyl)ethyl)-2-oxo-2H,8Hpyrano[2,3-f]chromene-9-carboxamide (4j)], 390 nM.
The value for `Cc1cc(=O)oc2c1ccc1oc(=N)c(C(=O)NCc3ccc(C(C)(C)C)cc3)cc12` [N-(4-(tert-butyl)benzyl)-8-imino-4-methyl-2-oxo-2H,8H-pyrano[2,3-f]chromene-9-carboxamide (4p)] was 77 nM; that for `COc1ccc(CNC(=O)c2cc3c(ccc4ccc(=O)oc43)oc2=N)c(OC)c1` [N-(2,4-dimethoxybenzyl)-8-imino-2-oxo-2H,8H-pyrano[2,3-f]chromene-9-carboxamide (4k)] was 300 nM; that for `CCCCCCCCCCCCNC(=O)c1cc2c(ccc3ccc(=O)oc32)oc1=N` [N-dodecyl-8-imino-2-oxo-2H,8H-pyrano[2,3-f]chromene-9-carboxamide (4c)] was 83 nM.
Under `N=c1oc2ccc3ccc(=O)oc3c2cc1C(=O)NCc1ccccc1Cl` [N-(2-chlorobenzyl)-8-imino-2-oxo-2H,8H-pyrano[2,3-f]chromene-9-carboxamide (4n)] stands 30 nM; under `N=c1oc2ccc3ccc(=O)oc3c2cc1C(=O)N1CCOCC1` [8-imino-9-(morpholine-4-carbonyl)-2H,8H-pyrano[2,3-f]chromen-2-one (4f)], 226 nM.

Values taken from BindingDB's records for doi:10.1111/cbdd.12732 (Yogi Vemana University, 2016).
